{"source": "patent US6514747B2", "about": "(UT-Battelle, LLC, priority 1993, dated 2003)", "molecules": {"B1": {"name": "human agouti: recombinant human agouti protein (132 amino acids, SEQ ID NO:4) produced in baculovirus-infected T. ni cells (protein)", "chain": "MDVTRLLLATLLVFLCFFTANSHLPPEEKLRDDRSLRSNSSVNLLDVPSVSIVALNKKSKQIGRKAAEKKRSSKKEASMKKVVRPRTPLSAPCVATRNSCKPPAPACCDPCASCQCRFFRSACSCRVLSLNC", "modifications": "Homo sapien"}}, "key": {"3T3-L1 adipocytes": {"system": "3T3-L1 adipocytes", "assay": "lipogenesis in 3T3-L1 adipocytes (FAS and SCD mRNA, FAS activity, triglyceride content)", "format": "cell-based", "details": "nitrendipine alone"}, "L6 skeletal myocytes": {"system": "L6 skeletal myocytes", "assay": "[Ca2+]i in L6 skeletal myocytes (fura 2)", "format": "cell-based"}, "[1]": {"system": "aP212 and aP273 transgenic mice", "assay": "daily insulin injections in aP2-agouti transgenic mice", "format": "in vivo, mouse", "protocol": "All mice were maintained at Oak Ridge National Laboratory. The FVB/N mice were obtained from random-bred stock. All mice were fed a diet containing 11% fat by weight (Mouse Diet 5015; Purina), weaned at 4 wk of age, and subsequently weighed monthly. Food and water were obtained from ad libitum. All data are from mice that are hemizygous for the transgene.\nPlasma and serum were obtained by retro-orbital sinus puncture from nonfasted mice between 9 am and 11 am. Plasma insulin levels were measured by radioimmunoassay (ICN) with porcine insulin as a standard. Blood glucose concentrations were determined by blood sampling from the tail vein followed by quantification via One-Touch™ glucose determination system (Johnson & Johnson).\nSix- to ten-wk-old male mice were subcutaneously injected between 11 am and noon with Humulin U ultralente (Eli Lilly, Indianapolis, Ind.) at a daily dose of 0.5, 1, or 2 units/day per mouse. Insulin (100 units/ml) was diluted before injection with phosphate-buffered saline so that all mice received a 200-μl injection. A 1-ml syringe was filled with […] of the diluted insulin solution. To keep the insulin suspension as uniform as possible, it was mixed between each injection via plunger action."}, "untransfected 293 cells": {"system": "untransfected 293 cells", "assay": "adenylyl cyclase assay in untransfected 293 cells", "format": "cell-based, human", "details": "untransfected 293 cells", "protocol": "293 cells (5×10^5) and 293 cells expressing human TSH-R were preloaded with 5 μCi ^3H-adenine for 1.5 h at 37° C. in a 5% CO2 incubator.\nMedium was aspirated and 2.5% perchloric acid containing 0.1 mM cAMP was used to stop the incubation. Adenylyl cyclase activity was calculated by determining the percent conversion of ^3H-adenine to ^3H-cAMP as described (Salomon, 1991; Johnson and Salomon, 1991). Correlation of cAMP accumulation measured in this assay with actual adenylyl cyclase activity is made under the assumption that isobutymethylxanthine effectively blocks cAMP degradation. Data represent means and standard deviations from triplicate data points."}, "[2]": {"system": "isolated human adipocytes", "assay": "[Ca2+]i in isolated human adipocytes", "format": "cell-based"}, "[3]": {"target": "T1, human melanocortin 1 receptor (hMC1R) (Homo sapiens, UniProt Q01726)", "T1 construct": "The coding region of the human melanocortin 1, 3, and 5 receptor (hMC1R, hMC3R, and hMC5R) genes was amplified; expressed in transfected cells; host or cells: HEK-293 cells, cotransfected with pMT4 construct and pRSV-Neo, geneticin-selected clones", "T1 sequence (Q01726 whole entry)": "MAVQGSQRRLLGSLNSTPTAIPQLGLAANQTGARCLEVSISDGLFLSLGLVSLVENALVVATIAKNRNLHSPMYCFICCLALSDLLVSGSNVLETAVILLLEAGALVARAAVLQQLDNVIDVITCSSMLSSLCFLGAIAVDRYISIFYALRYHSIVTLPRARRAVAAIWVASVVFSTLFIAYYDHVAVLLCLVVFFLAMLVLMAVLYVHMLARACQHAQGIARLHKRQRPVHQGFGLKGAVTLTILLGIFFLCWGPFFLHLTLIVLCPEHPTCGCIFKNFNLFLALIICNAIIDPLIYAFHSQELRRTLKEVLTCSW", "assay": "[Ca2+]i in HEK-293 cells transfected with hMC1R", "format": "cell-based", "details": "20 nM agouti, n = 8", "protocol": "The coding region of the human melanocortin 1, 3, and 5 receptor (hMC1R, hMC3R, and hMC5R) genes was amplified by polymerase chain reaction and subcloned into the vector pMT4, and the sequence was verified. HEK-293 cells, which appear to lack endogenous melanocortin receptors (Lu et al., 1994), were cotransfected with pMT4 and pRSV-Neo by either calcium phosphate coprecipitation method or the use of Transfectam reagent (Promega). Clones were selected using 600 μg geneticin/ml. culture medium.\n[Ca^2+]i was measured in L6, A7r5, and HEK-293 cells (Zemel et al., 1995) as previously described and in 3T3-L1 cells as described by Klip and Ramlal (1987). Monolayers of nonfused L6 cells and confluent A7r5 cells after 14-16 h of starvation in a serum-free culture medium were rinsed with Hanks' balanced salt solution (HBSS), detached by incubation in 2 ml trypsin (0.05%) for 2-3 min at 37° C., and released by pipetting without trypsinization. Cells were harvested by centrifugation at 50 g and resuspended in 1 ml HBSS at a density of ˜10^6 cells/ml. For 3T3-L1 cells, monolayers of differentiated adipocytes were rinsed with serum-free DMEM and exposed to 0.05% trypsin for 3 min. The solution was decanted, and the cells were incubated for 3 min in culture medium. Cells were detached by pipetting and collected by centrifugation at 50 g. Cells were then incubated in culture medium to recover for 1 h followed by incubation in serum-free DMEM for 4 h at 37° C. in an atmosphere of 5% CO2, collected by centrifugation, and resuspended in HBSS at a density of ˜10^6 cells/ml. Cell suspensions were chilled on ice for 5 min and loaded with […] (final concn) fura 2 acetoxymethyl ester (AM; Sigma) in the dark for 20 min at 37° C. For 3T3-L1 adipocytes, the chilling step was skipped. […] [Ca^2+]i levels were then measured fluorometrically in suspensions using dual excitation (340 and 380 nm)-single emission (510 nm) fluorometry as previously described (Zemel et al., 1995). [Ca^2+]i was then calculated by the computer in the fluorometer with the equation of Grynkiewicz et al. (1985). […]"}, "[4]": {"target": "T2, human melanocortin 3 receptor (hMC3R) (Homo sapiens, UniProt P41968)", "T2 construct": "The coding region of the human melanocortin 1, 3, and 5 receptor (hMC1R, hMC3R, and hMC5R) genes was amplified; expressed in transfected cells; host or cells: HEK-293 cells, cotransfected with pMT4 construct and pRSV-Neo, geneticin-selected clones", "T2 sequence (P41968 whole entry)": "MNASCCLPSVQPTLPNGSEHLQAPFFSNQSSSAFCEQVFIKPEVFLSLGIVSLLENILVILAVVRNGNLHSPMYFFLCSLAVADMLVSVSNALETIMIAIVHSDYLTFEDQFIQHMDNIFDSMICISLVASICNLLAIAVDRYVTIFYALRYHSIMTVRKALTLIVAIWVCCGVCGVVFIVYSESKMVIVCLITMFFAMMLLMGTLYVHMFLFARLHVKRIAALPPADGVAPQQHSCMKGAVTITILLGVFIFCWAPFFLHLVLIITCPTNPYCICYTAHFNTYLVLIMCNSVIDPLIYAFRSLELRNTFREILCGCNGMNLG", "assay": "[Ca2+]i in HEK-293 cells transfected with hMC3R", "format": "cell-based", "details": "20 nM agouti, n = 8", "description": "[Ca^2+]i was measured in L6, A7r5, and HEK-293 cells (Zemel et al., 1995) as previously described and in 3T3-L1 cells as described by Klip and Ramlal (1987). Monolayers of nonfused L6 cells and confluent A7r5 cells after 14-16 h of starvation in a serum-free culture medium were rinsed with Hanks' balanced salt solution (HBSS), detached by incubation in 2 ml trypsin (0.05%) for 2-3 min at 37° C., and released by pipetting without trypsinization. Cells were harvested by centrifugation at 50 g and resuspended in 1 ml HBSS at a density of ˜10^6 cells/ml. For 3T3-L1 cells, monolayers of differentiated adipocytes were rinsed with serum-free DMEM and exposed to 0.05% trypsin for 3 min. The solution was decanted, and the cells were incubated for 3 min in culture medium. Cells were detached by pipetting and collected by centrifugation at 50 g. Cells were then incubated in culture medium to recover for 1 h followed by incubation in serum-free DMEM for 4 h at 37° C. in an atmosphere of 5% CO2, collected by centrifugation, and resuspended in HBSS at a density of ˜10^6 cells/ml. […] [Ca^2+]i levels were then measured fluorometrically in suspensions using dual excitation (340 and 380 nm)-single emission (510 nm) fluorometry as previously described (Zemel et al., 1995). [Ca^2+]i was then calculated by the computer in the fluorometer with the equation of Grynkiewicz et al. (1985). […]"}}, "data": [{"molecule": "CCOC(=O)C1=C(C)NC(C)=C(C(=O)OC)C1c1cccc([N+](=O)[O-])c1", "note": "(stereo not drawn) [nitrendipine, reference compound]", "values": [{"measurement": "effect on FAS activity or triglyceride content", "setting": "3T3-L1 adipocytes", "result": "no effect"}, {"measurement": "reduction of [Ca2+]i response to 50 nM agouti", "setting": "L6 skeletal myocytes; 30 μM nitrendipine", "result": "~50", "unit": "%"}, {"measurement": "[Ca2+]i response to 50 nM agouti", "setting": "L6 skeletal myocytes; with 30 μM nitrendipine", "result": "22 ± 6", "unit": "nM"}]}, {"molecule": "insulin: Humulin U ultralente (Eli Lilly), injected subcutaneously", "values": [{"measurement": "time for blood glucose levels to return to normal after insulin injection", "setting": "[1]; 1 unit per mouse s.c., aP212 mice and littermates", "result": "≤ 24", "unit": "h"}, {"measurement": "average rate of weight gain, insulin-injected transgenic mice vs control mice", "setting": "[1]; 2 units of insulin per day per mouse s.c., 7 days", "result": 1.7, "unit": "fold"}]}, {"molecule": "α-melanocyte-stimulating hormone [α-MSH, reference compound]", "values": [{"measurement": "effect on the cAMP pathway", "setting": "untransfected 293 cells", "result": "no effect"}]}, {"molecule": "B1", "values": [{"measurement": "[Ca2+]i", "setting": "[2]", "result": "stimulate an increase"}, {"measurement": "[Ca2+]i Increase over Baseline", "setting": "[3]", "result": "57 ± 9"}, {"measurement": "[Ca2+]i Increase over Baseline", "setting": "[4]", "result": "77 ± 14"}]}]}
